Laboratory results reported in patent publication EP2992880A1, “Use of heme oxygenase 1 inducers and cannabinoid 2 receptor or delta-opioid receptor agonists in inflammatory pain” (Fundació Institut de Recerca de l'Hospital de la Santa Creu …, priority 2014, dated 2016).

What was measured:
CFA-injected mice [1] = test: von Frey filaments test (mechanical allodynia) in CFA-induced chronic inflammatory pain; format: in vivo, male C57BL/6 mice
Method: (§1) The experiments were performed in male C57BL/6 mice acquired from Harlan Laboratories (Barcelona, Spain). All mice weighing 21 to 25 g were housed under 12-h/12-h light/ dark conditions in a room with controlled temperature (22° C) and humidity (66%). Animals had free access to food and water and were used after a minimum of 7 days acclimatization to the housing conditions. All experiments were performed according with the Guide for the Care and Use of Laboratory Animals as adopted and promulgated by the U.S. National Institutes of Health and approved by the local Committee of Animal Use and Care of the Autonomous University of Barcelona. All efforts were made to minimize animal suffering and to reduce the number of animals used.
(§2) Chronic inflammatory pain was induced by the subplantar injection of 30 µl of CFA (Sigma) into the right hind paw under brief anesthetic conditions with isoflurane according to previous works (Leánez et al., Eur J Pharmacol, 2009, 602:41-49; Hervera et al., Naunyn Schmiedebergs Arch Pharmacol, 2009, 380:345-352). All experiments were performed at 10 days after CFA injection. At this time point, all of these animals developed a local inflammatory reaction, allodynia to mechanical stimuli and hyperalgesia to noxious thermal stimuli, as previously reported (Negrete et al., PLoS One, 2011, 6:e26688). The development of mechanical allodynia and thermal hyperalgesia was evaluated by using the von Frey filaments and plantar tests, respectively. All animals were tested in each paradigm before and at 10 days after CFA-injection.
Mechanical allodynia was quantified by measuring the hind paw withdrawal response to von Frey filament stimulation. In brief, animals were placed in methacrylate cylinders (20 cm high, 9 cm diameter; Servei Estació, Barcelona, Spain) with a wire grid bottom through which the von Frey filaments (North Coast Medical, Inc., San Jose, CA) with a bending force in the range of 0.008-3.5 g were applied by using a modified version of the up-down paradigm, as previously reported by Chaplan et al. (J Neurosci Methods, 1994, 53:55-63). The filament of 0.4 g was used first and the 3.0 g filament was used as a cut-off. Then, the strength of the next filament was decreased or increased according to the response. The threshold of response was calculated from the sequence of filament strength used during the up-down procedure by using an Excel program (Microsoft Iberia SRL, Barcelona, Spain) that includes curve fitting of the data. Clear paw withdrawal, shaking, or licking of the paw was considered as a nociceptive-like response. Both ipsilateral and contralateral hind paws were tested. Animals were allowed to habituate for 1 h before testing in order to allow an appropriate behavioral immobility.
In a first set of experiments, we assessed the expression of inflammatory pain induced by the subplantar administration of CFA as previously used (Leánez et al., Eur J Pharmacol, 2009, 602:41-49). After the habituation period, baseline responses were established in the following sequence: von Frey filaments and plantar test. After baseline measurements, inflammatory pain was induced and animals were again tested in each paradigm at day 10 after CFA injection by using the same sequence as for baseline responses. The contralateral paws were used as controls (n = 6 animals per group).
In a second set of experiments, we evaluated the mechanical antiallodynic and thermal antihyperalgesic effects of the subplantar administration of different doses of a specific DOR (DPDPE) or CB2R (JWH-015) agonist and their respective vehicles in the contralateral and ipsilateral paw of CFA-injected animals (n = 6 animals per group). […]

[2] = visceral pain; cited from earlier work
CFA-injected mice [3] = test: plantar test (thermal hyperalgesia) in CFA-induced chronic inflammatory pain; format: in vivo, male C57BL/6 mice
Method: as §1, §2
Thermal hyperalgesia was assessed as previously reported by Hargreaves et al. (Pain, 1988, 32:77-88). Paw withdrawal latency in response to radiant heat was measured using the plantar test apparatus (Ugo Basile, Varese, Italy). Briefly, mice were placed in methacrylate cylinders (20 cm high x 9 cm diameter) positioned on a glass surface. The heat source was positioned under the plantar surface of the hind paw and activated with a light beam intensity, chosen in preliminary studies to give baseline latencies from 8 to 10 s in control mice. A cut-off time of 12 s was used to prevent tissue damage in absence of response. The mean paw withdrawal latencies from the ipsilateral and contralateral hind paws were determined from the average of three separate trials, taken at 5 min intervals to prevent thermal sensitization and behavioral disturbances. Animals were habituated to the environment for 1 h before the experiment to become quiet and to allow testing. […]
In another set of experiments, we evaluated the mechanical antiallodynic and thermal antihyperalgesic effects produced by the subplantar administration of 290 µg of SnPP alone or combined with the subplantar administration of a high dose of DPDPE (150 µg) or JWH-015 (300 µg) in the contralateral and ipsilateral paw of CFA-injected animals (n = 6 animals per group).
The reversibility of the antinociceptive effects produced by the subplantar administration of DPDPE (150 µg) or JWH-015 (300 µg), as doses that produce the maximal antiallodynic and antihyperalgesic effects after peripheral inflammation, by their subplantar coadministration with specific (naltrindole; 50 µg; AM630; 60 µg) and an unspecific peripheral opioid antagonist (naloxone methiodide, NX-ME; 50 µg) or a cannabinoid 1 receptor (CB1R) antagonist (AM251; 150 µg) (Hervera et al., J Pharmacol Exp Ther, 2010, 334: 887-896; Hervera et al., Mol Pain, 2011, 7:25) was also evaluated (n = 6 animals per group). The doses of all tested opioid and cannabinoid receptor antagonists were selected according to our previous data in animals with chronic pain (Hervera et al., Naunyn Schmiedebergs Arch Pharmacol, 2009, 380:345-352; Hervera et al., Psychopharmacology, 2013, 228:463-477; Negrete et al., PLoS One, 2011, 6:e26688).
CoPP and SnPP were dissolved in DMSO (1 % solution in saline). JWH-015, AM630, AM251 were dissolved in DMSO (50 % solution in saline). […]

## cobalt (III) protoporphyrin IX chloride [CoPP]
CFA-injected mice [1]; CoPP 10 mg/kg intraperitoneal, DPDPE 50 µg subplantar (Fig. 3A)
  effect of CoPP treatment on the mechanical antiallodynic effects of DPDPE: did not alter
CFA-injected mice [1]; CoPP 10 mg/kg intraperitoneal, JWH-015 30 µg subplantar, P < 0.001 (Fig. 4A)
  effect of CoPP treatment on the antiallodynic effects of JWH-015: significantly enhanced
CFA-injected mice [1]; CoPP alone 10 mg/kg intraperitoneal, ipsilateral paw, P < 0.001 versus vehicle (Fig. 3A)
  mechanical allodynia induced by peripheral inflammation: significantly attenuated
CFA-injected mice [1]; Table 5, ipsilateral paw, CoPP 10 mg/kg intraperitoneal, DPDPE 50 µg subplantar, vehicle 5.8
  Mechanical allodynia, Experimental results (%) (maximal possible effect): 27.1%
CFA-injected mice [1]; Table 6, ipsilateral paw, CoPP 10 mg/kg intraperitoneal, JWH-015 30 µg subplantar, vehicle 4.1
  Mechanical allodynia, Experimental results (%) (maximal possible effect): 25.3%
[2]
  effect of CoPP on the antinociceptive effect of morphine treatment: does not alter
CFA-injected mice [3]; CoPP 10 mg/kg intraperitoneal, DPDPE 50 µg subplantar, P < 0.001 (Fig. 3B)
  effect of CoPP treatment on the thermal antihyperalgesic effects of DPDPE: significantly increased
CFA-injected mice [3]; CoPP 10 mg/kg intraperitoneal, JWH-015 30 µg subplantar, P < 0.001 (Fig. 4B)
  effect of CoPP treatment on the antihyperalgesic effects of JWH-015: significantly enhanced
CFA-injected mice [3]; CoPP alone 10 mg/kg intraperitoneal, ipsilateral paw, P < 0.001 versus vehicle (Fig. 3B)
  thermal hyperalgesia induced by peripheral inflammation: significantly attenuated
CFA-injected mice [3]; Table 5, ipsilateral paw, CoPP 10 mg/kg intraperitoneal, DPDPE 50 µg subplantar, vehicle 4.0
  Thermal hyperalgesia, Experimental results (%) (maximal possible effect): 26.8%
CFA-injected mice [3]; Table 6, ipsilateral paw, CoPP 10 mg/kg intraperitoneal, JWH-015 30 µg subplantar, vehicle 4.9
  Thermal hyperalgesia, Experimental results (%) (maximal possible effect): 22.3%
